Measurements taken from PubChem BioAssay AID330 (DTP/NCI, 2004).
“And” between values parts separate entries of the source, which are not always exact repeats. Equal values may be shown once. Toxic doses and inconclusive results are not listed.

Tested on: P388 leukemia ip, CD2F1 mice, survival T/C
Experiment: NCI In Vivo Anticancer Drug Screen. Data for tumor model P388 Leukemia (intraperitoneal) in CD2F1 (CDF1) mice
Settings: endpoint: median survival time, higher = longer survival
Method in brief: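 Mice carrying the transplanted tumor received test compound or vehicle. Survival was recorded in each group, and the value is the treated-group measurement divided by that of the vehicle-treated control group.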

[1] = dose: 50.0 mg/kg/injection, schedule: Q01DX005 (ip), vehicle: saline with Tween-80
[2] = dose: 100.0 mg/kg/injection, schedule: Q01DX005 (ip), vehicle: saline with Tween-80
[3] = dose: 200.0 mg/kg/injection, schedule: Q01DX005 (ip), vehicle: saline with Tween-80
[4] = dose: 50.0 mg/kg/injection, schedule: Q01DX005 (ip), vehicle: Klucel (hydroxypropylcellulose) (HPC)
[5] = dose: 100.0 mg/kg/injection, schedule: Q01DX005 (ip), vehicle: Klucel (hydroxypropylcellulose) (HPC)
[6] = dose: 200.0 mg/kg/injection, schedule: Q01DX005 (ip), vehicle: Klucel (hydroxypropylcellulose) (HPC)

For `O=C1C(c2[nH]c3cccc(Cl)c3c2O)=Nc2cccc(Cl)c21`, the T/C [1] was 100 % of control, the T/C [2] was 104 % of control and the T/C [3] was 109 % of control.

`COc1c(OCC(O)CN2CCCCC2)c2c(C)coc2c2ccoc12` (centres undefined) was tested, and the T/C [4] was 100 % of control and the T/C [5] was 96 % of control.

With `Cn1c2cc([N+](=O)[O-])ccc2c(=O)c2c(O)cc3c(c21)C=CC(C)(C)O3` the T/C (dose: 100.0 mg/kg/injection, schedule: Q01DX001 (ip), vehicle: saline with Tween-80) was 100 % of control and the T/C (dose: 200.0 mg/kg/injection, schedule: Q01DX001 (ip), vehicle: saline with Tween-80) was 103 % of control.

`COc1cc(C(=O)NOCc2cc3c(cc2Cl)OCO3)cc(OC)c1OC` was tested, and the T/C (dose: 100.0 mg/kg/injection, schedule: Q04DX003 (ip), vehicle: saline sonified) was 90 % of control and the T/C (dose: 400.0 mg/kg/injection, schedule: Q04DX003 (ip), vehicle: saline sonified) was 90 % of control.

`COC(=O)c1cc(-c2ccco2)n2c(NC(=O)Nc3ccc(Cl)cc3)nnc2n1` was tested, and the T/C [1] was 98 % of control, the T/C [2] was 103 % of control and the T/C [3] was 95 % of control.

For `CC1(C)CC(=O)C(C(c2ccccc2O)C2C(=O)CC(C)(C)CC2=O)C(=O)C1`, the T/C [4] was 102 % of control, the T/C [5] was 102 % of control and the T/C [6] was 102 % of control.

For `CC(=O)Nc1ccc(S(=O)(=O)/C(=C\c2ccc(Cl)o2)c2ccc([N+](=O)[O-])o2)cc1`, the T/C (dose: 50.0 mg/kg/injection, schedule: Q01DX009 (ip), vehicle: suspension in saline) was 86 % of control, the T/C (dose: 100.0 mg/kg/injection, schedule: Q01DX009 (ip), vehicle: suspension in saline) was 88 % of control and the T/C (dose: 200.0 mg/kg/injection, schedule: Q01DX009 (ip), vehicle: suspension in saline) was 92 % of control.

With `COc1c(Br)cc(Br)cc1/C=C/[N+](=O)[O-]` the T/C (dose: 50.0 mg/kg/injection, schedule: Q01DX009 (ip), vehicle: saline with Tween-80) was 123 % of control.

With `COc1ccc2c(c1)CCC1OC(c3cccnc3)OC21` (centres undefined) the T/C (dose: 60.0 mg/kg/injection, schedule: Q01DX005 (ip), vehicle: saline with Tween-80) was 99 % of control, the T/C (dose: 120.0 mg/kg/injection, schedule: Q01DX005 (ip), vehicle: saline with Tween-80) was 99 % of control and the T/C (dose: 240.0 mg/kg/injection, schedule: Q01DX005 (ip), vehicle: saline with Tween-80) was 97 % of control.

`CN(C)C(=O)NC1CCC2CCCCC2C1` (centres undefined) was tested, and the T/C (dose: 100.0 mg/kg/injection, schedule: Q01DX001 (ip), vehicle: saline) was 100 % of control, the T/C (dose: 200.0 mg/kg/injection, schedule: Q01DX001 (ip), vehicle: saline) was 99 % of control and the T/C (dose: 400.0 mg/kg/injection, schedule: Q01DX001 (ip), vehicle: saline) was 98 % of control.

For `C[O][Sn]([CH3])([CH3])[O][Sn]([CH3])([CH3])[Cl]`, the T/C (dose: 6.25 mg/kg/injection, schedule: Q04DX003 (ip), vehicle: saline) was 103 % of control and 106 % of control, the T/C (dose: 12.5 mg/kg/injection, schedule: Q04DX003 (ip), vehicle: saline) was 100 % of control and 101 % of control and 96 % of control and the T/C (dose: 25.0 mg/kg/injection, schedule: Q04DX003 (ip), vehicle: saline) was 99 % of control and 100 % of control and 109 % of control. The T/C (dose: 50.0 mg/kg/injection, schedule: Q04DX003 (ip), vehicle: saline) was 102 % of control and 120 % of control and 97 % of control.

`C=CCNC(=S)N/N=C(C)/C=C/c1ccc(OC)cc1` was tested, and the T/C [4] was 100 % of control, the T/C [5] was 96 % of control and the T/C [6] was 88 % of control.

In the case of `C[CH2][Ge]([c]1ccccc1)[c]1ccccc1.C[CH2][Ge]([c]1ccccc1)[c]1ccccc1.c1cc[c]([Ge]([O][Ge]([c]2ccccc2)[c]2ccccc2)[c]2ccccc2)cc1`, the T/C (dose: 50.0 mg/kg/injection, schedule: Q01DX005 (ip), vehicle: saline) is reported as 91 % of control, the T/C (dose: 100.0 mg/kg/injection, schedule: Q01DX005 (ip), vehicle: saline) is reported as 91 % of control and the T/C (dose: 200.0 mg/kg/injection, schedule: Q01DX005 (ip), vehicle: saline) is reported as 91 % of control.

For `CN=NN(C)C(=O)NC`, the T/C (dose: 12.5 mg/kg/injection, schedule: Q01DX005 (ip), vehicle: saline) was 102 % of control and the T/C (dose: 25.0 mg/kg/injection, schedule: Q01DX005 (ip), vehicle: saline) was 117 % of control.

`COc1ccc(/C=C/C(=O)c2ccccc(=O)c2O)c(OC)c1` was tested, and the T/C (dose: 25.0 mg/kg/injection, schedule: Q01DX005 (ip), vehicle: Klucel (hydroxypropylcellulose) (HPC)) was 101 % of control, the T/C [4] was 98 % of control and the T/C [5] was 105 % of control. The T/C [6] was 104 % of control.

For `O=S(=O)(O)C(O)c1ccc(Cl)cc1Cl` (centres undefined), the T/C (dose: 50.0 mg/kg/injection, schedule: Q01DX001 (ip), vehicle: Klucel (hydroxypropylcellulose) (HPC)) was 100 % of control, the T/C (dose: 100.0 mg/kg/injection, schedule: Q01DX001 (ip), vehicle: Klucel (hydroxypropylcellulose) (HPC)) was 100 % of control and the T/C (dose: 200.0 mg/kg/injection, schedule: Q01DX001 (ip), vehicle: Klucel (hydroxypropylcellulose) (HPC)) was 116 % of control.
